Publication PMC6117412, “Comprehensive Study of the Enzymatic Catalysis of the Electrochemical Oxygen Reduction Reaction (ORR) by Immobilized Copper Efflux Oxidase (CueO) From Escherichia coli” (Frontiers in Chemistry, 2018)

Molecular target: T1, CueO (copper efflux oxidase) (Escherichia coli, UniProt P36649)
T1 sequence (P36649 29-516): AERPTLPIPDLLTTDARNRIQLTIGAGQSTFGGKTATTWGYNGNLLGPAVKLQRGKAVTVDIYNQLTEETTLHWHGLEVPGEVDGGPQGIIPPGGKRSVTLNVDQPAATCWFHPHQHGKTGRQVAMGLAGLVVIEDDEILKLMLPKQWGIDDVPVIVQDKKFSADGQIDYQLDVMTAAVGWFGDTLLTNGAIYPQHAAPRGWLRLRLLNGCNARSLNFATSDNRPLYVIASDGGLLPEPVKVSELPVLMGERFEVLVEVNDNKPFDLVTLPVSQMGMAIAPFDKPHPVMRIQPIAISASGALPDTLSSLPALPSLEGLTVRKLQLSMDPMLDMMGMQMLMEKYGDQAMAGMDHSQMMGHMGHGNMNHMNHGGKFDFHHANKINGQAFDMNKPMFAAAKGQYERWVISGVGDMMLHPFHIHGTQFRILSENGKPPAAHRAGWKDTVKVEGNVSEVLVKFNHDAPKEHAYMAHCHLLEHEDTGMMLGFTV
Settings: immobilised on cysteamine-modified polycrystalline Au; O2-saturated phosphate buffer; 100-200 mM fluoride; direct electron transfer

F [F−, sodium fluoride]
cyclic voltammetry and chronoamperometry of electrocatalytic O2 reduction: the current density decreases significantly after the addition of fluoride
